Laboratory results taken from patent EP0463456A1, “Phosphorus-containing HMG-CoA reductase inhibitors, new intermediates and their use” (E.R. SQUIBB & SONS, INC., priority 1990, dated 1992).

Target: T1, Rat hepatic HMG-CoA reductase (Rattus norvegicus, UniProt P51639)
T1 construct: Livers are removed from 2-4 cholestyramine-fed, decapitated, Sprague Dawley rats, and homogenized in phosphate buffer A; from tissue; host or cells: liver microsomes of cholestyramine-fed Sprague Dawley rats
T1 sequence (P51639 1-887): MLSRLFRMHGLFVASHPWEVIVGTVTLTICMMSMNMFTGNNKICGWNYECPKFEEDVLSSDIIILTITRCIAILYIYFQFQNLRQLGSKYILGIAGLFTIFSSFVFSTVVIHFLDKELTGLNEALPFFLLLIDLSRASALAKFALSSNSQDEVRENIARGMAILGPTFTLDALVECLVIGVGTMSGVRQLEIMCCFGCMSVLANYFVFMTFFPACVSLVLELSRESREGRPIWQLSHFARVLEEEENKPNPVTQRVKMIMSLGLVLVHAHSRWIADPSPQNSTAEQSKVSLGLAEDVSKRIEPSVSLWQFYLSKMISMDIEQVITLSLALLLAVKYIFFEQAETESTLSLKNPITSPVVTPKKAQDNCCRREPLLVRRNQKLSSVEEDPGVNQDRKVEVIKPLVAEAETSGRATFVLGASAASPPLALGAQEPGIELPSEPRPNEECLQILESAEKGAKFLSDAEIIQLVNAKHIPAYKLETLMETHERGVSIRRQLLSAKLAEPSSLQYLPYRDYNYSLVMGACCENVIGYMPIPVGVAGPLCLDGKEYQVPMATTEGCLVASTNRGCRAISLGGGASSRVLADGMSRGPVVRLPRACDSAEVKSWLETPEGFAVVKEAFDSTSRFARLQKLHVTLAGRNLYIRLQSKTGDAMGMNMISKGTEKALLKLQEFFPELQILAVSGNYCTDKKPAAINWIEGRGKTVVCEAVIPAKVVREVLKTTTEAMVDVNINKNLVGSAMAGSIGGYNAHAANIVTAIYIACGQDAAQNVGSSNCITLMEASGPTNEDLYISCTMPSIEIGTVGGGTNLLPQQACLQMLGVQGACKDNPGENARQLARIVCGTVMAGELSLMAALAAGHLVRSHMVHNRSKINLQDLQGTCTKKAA
Assay: Rat Hepatic HMG-CoA Reductase test (conversion of 14C-HMG-CoA to 14C-mevalonic acid by rat hepatic microsomes)
Type: biochemical
Details: concentration producing 50% inhibition of enzyme activity, 100 µM HMG-CoA, 20 minutes at 37° C, read-out: Reductase 150
Experimental: 1) Rat Hepatic HMG-CoA Reductase
Rat hepatic HMG-CoA reductase activity is measured using a modification of the method described by Edwards (Edwards, P.A., et al., J. Lipid Res. 20:40, 1979). Rat hepatic microsomes are used as a source of enzyme, and the enzyme activity is determined by measuring the conversion of the ^14C-HMG-CoA substrate to 14C-mevalonic acid.
a. Preparation of Microsomes
Livers are removed from 2-4 cholestyramine-fed, decapitated, Sprague Dawley rats, and homogenized in phosphate buffer A (potassium phosphate, 0.04 M, pH 7.2; KCI, 0.05 M; sucrose, 0.1 M; EDTA, 0.03 M; aprotinin, 500 KI units/ml). The homogenate is spun at 16,000 x g for 15 minutes at 4°C. The supernatant is removed and recentrifuged under the same conditions a second time. The second 16,000 x g supernatant is spun at 100,000 x g for 70 minutes at 4° C. Pelleted microsomes are resuspended in a minimum volume of buffer A (3-5 ml per liver), and homogenized in a glass/glass homogenizer. […]
Standardized assays for the evaluation of inhibitors are conducted according to the following procedure. […] The first 0.5 ml is discarded, and the next 1.5 ml is collected and counted for both tritium and carbon 14 in 10.0 ml Opti-fluor scintillation fluid. Results are calculated as nmoles mevalonic acid produced per 20 minutes, and are corrected to 100% recovery of tritium. […]

(S)-4-[[[4-(4-Fluorophenyl)-1,2-bis(1-methylethyl)-5-phenyl-1H-pyrrol-3-yl]-ethynyl]hydroxyphosphinyl]-3-hydroxybutanoic acid, dilithium salt [SQ 34,346]
IC50: 0.6 nM
